According to article PMC5826726 (Biochemical pharmacology, 2017):
Read-outs that look alike come from different tables or passages of the source.

How the values were obtained:
[1] = molecular target: recombinant human DNMT1 (Homo sapiens, UniProt P26358); assay: DNMT1 radiometric activity assay; type: biochemical; conditions: for Inhibition of DNMT1: 10 nM to 200 µM (1,8-diMQ) or 600 µM (5-amino-1MQ); for IC50: read-out: IC50, DNA (cytosine-5)-methyltransferase 1, NI: no inhibition, NC: not calculable
[2] = molecular target: recombinant human PRMT3 (Homo sapiens, UniProt O60678); assay: PRMT3 radiometric activity assay; type: biochemical; conditions: for Inhibition of PRMT3: 10 nM to 200 µM (1,8-diMQ) or 600 µM (5-amino-1MQ)
[3] = molecular target: T1, recombinant human COMT (Homo sapiens, UniProt P21964); assay: COMT radiometric activity assay; type: biochemical
T1 sequence (P21964 1-271): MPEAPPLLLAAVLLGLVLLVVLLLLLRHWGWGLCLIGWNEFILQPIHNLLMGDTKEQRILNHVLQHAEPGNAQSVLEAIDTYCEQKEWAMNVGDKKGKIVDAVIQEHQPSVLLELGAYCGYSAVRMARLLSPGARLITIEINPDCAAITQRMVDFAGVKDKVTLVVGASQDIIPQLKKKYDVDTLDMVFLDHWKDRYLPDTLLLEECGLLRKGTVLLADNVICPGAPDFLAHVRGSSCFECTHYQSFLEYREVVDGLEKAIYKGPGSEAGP

[4] = molecular target: T2, NNMT (Mus musculus, UniProt O55239); conditions: read-out: IC50 (NNMT inhibition); biochemical assay; cited from earlier work
T2 sequence (O55239 1-264): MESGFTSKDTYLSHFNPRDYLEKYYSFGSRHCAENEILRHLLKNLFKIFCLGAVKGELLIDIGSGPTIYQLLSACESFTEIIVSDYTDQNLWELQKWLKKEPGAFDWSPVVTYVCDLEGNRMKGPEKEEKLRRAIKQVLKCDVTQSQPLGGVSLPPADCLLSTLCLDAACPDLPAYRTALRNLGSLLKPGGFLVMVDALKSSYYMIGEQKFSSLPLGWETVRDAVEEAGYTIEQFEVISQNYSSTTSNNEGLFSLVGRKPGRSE

[5] = test system: Caco-2 cells; assay: Bi-directional permeability assay with Caco-2 cells
[6] = Parallel artificial membrane permeability assay; conditions: for Flux: PAMPA passive transport, 400 µM donor in PBS, 4 h, room temperature; for Permeability Classification: PAMPA, BCS, Biopharmaceutics Classification System
[7] = PAMPA; for Flux: 4 h, 400 µM
[8] = molecular target: recombinant human NAMPT (Homo sapiens, UniProt P43490); assay: NAMPT fluorometric activity assay; type: biochemical
[9] = molecular target: T2, NNMT; assay: Intracellular NNMT reaction product 1-MNA in cultured 3T3-L1 cells; conditions: 24 h; for 1-MNA levels in adipocytes relative to control: 10 µM; for Intracellular levels of 1-MNA vs untreated controls: 30 µM
[10] = test system: 3T3-L1 pre-adipocytes; assay: MTT cell viability assay; type: cell-based; conditions: highest tested concentration (0.1 – 60 µM range, Figure 6C)
[11] = molecular target: T3, recombinant human SIRT-1 (Homo sapiens, UniProt Q96EB6); assay: SIRT-1 fluorometric activity assay; type: biochemical
T3 sequence (Q96EB6 1-747): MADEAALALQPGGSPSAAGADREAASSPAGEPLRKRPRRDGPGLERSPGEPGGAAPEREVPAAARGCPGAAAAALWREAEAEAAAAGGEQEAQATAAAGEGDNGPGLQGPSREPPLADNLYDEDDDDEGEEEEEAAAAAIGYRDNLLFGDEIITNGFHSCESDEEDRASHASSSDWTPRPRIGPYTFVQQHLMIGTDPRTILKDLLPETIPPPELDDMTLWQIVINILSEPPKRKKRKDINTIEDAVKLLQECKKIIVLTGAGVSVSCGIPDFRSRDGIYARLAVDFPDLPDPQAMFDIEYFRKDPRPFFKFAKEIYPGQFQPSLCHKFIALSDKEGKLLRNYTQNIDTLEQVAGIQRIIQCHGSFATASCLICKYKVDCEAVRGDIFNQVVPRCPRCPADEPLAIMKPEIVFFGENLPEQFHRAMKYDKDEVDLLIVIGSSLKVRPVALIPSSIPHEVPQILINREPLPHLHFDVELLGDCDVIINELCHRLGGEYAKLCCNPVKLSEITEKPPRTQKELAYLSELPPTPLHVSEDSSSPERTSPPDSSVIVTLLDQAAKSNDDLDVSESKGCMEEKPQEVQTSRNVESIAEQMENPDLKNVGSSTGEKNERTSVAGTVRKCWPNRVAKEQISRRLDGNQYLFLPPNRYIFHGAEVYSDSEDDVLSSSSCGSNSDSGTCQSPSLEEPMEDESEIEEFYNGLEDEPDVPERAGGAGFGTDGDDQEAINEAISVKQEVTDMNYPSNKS

[12] = test system: DIO C57Bl/6 mice; assay: Efficacy in diet-induced obese; type: in vivo
[13] = test system: 3T3-L1 cells; assay: Adipocyte differentiation / lipogenesis by oil red O staining; type: cell-based; conditions: differentiating 3T3-L1 cells
[14] = test system: Caco-2 cells; conditions: for Mean A➔B Papp / Mean B➔A Papp: Caco-2, pH 7.4; for Classification (Caco-2 permeability/efflux) / Efflux Ratio (Re): Caco-2
[15] = test system: differentiated 3T3-L1 adipocytes; assay: Intracellular metabolites; conditions: 24 h
[16] = DIO mice, 20 mg/kg SC three times daily, 11 days

Sequence of recombinant human NAMPT (P43490 whole entry): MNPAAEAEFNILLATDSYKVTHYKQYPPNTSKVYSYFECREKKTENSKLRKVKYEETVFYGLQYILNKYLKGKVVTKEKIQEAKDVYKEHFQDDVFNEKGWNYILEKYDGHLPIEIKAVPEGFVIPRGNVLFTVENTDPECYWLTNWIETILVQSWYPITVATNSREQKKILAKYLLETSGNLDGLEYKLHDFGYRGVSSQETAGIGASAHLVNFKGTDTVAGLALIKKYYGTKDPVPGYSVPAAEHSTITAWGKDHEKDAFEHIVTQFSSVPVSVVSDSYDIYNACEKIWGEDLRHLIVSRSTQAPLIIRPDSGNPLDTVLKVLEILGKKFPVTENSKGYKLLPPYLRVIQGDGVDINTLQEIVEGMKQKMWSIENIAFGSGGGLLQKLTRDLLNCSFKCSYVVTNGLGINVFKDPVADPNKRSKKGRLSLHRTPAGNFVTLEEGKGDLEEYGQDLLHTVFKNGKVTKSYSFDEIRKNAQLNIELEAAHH
Sequence of recombinant human PRMT3 (O60678 whole entry): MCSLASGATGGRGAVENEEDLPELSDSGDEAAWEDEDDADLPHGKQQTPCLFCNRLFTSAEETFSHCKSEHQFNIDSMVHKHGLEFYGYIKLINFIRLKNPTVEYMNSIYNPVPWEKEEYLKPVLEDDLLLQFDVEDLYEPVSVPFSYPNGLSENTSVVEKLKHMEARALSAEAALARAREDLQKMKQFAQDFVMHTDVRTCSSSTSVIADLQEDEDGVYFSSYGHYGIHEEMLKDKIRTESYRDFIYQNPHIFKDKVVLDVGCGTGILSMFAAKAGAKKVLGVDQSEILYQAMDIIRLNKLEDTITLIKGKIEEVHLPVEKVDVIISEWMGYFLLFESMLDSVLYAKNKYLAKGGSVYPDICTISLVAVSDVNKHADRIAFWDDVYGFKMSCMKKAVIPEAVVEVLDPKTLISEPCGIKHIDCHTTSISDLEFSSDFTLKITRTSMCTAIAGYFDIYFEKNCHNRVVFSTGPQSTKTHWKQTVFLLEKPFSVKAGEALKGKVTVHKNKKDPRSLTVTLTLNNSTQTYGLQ
Sequence of recombinant human DNMT1 (P26358 whole entry): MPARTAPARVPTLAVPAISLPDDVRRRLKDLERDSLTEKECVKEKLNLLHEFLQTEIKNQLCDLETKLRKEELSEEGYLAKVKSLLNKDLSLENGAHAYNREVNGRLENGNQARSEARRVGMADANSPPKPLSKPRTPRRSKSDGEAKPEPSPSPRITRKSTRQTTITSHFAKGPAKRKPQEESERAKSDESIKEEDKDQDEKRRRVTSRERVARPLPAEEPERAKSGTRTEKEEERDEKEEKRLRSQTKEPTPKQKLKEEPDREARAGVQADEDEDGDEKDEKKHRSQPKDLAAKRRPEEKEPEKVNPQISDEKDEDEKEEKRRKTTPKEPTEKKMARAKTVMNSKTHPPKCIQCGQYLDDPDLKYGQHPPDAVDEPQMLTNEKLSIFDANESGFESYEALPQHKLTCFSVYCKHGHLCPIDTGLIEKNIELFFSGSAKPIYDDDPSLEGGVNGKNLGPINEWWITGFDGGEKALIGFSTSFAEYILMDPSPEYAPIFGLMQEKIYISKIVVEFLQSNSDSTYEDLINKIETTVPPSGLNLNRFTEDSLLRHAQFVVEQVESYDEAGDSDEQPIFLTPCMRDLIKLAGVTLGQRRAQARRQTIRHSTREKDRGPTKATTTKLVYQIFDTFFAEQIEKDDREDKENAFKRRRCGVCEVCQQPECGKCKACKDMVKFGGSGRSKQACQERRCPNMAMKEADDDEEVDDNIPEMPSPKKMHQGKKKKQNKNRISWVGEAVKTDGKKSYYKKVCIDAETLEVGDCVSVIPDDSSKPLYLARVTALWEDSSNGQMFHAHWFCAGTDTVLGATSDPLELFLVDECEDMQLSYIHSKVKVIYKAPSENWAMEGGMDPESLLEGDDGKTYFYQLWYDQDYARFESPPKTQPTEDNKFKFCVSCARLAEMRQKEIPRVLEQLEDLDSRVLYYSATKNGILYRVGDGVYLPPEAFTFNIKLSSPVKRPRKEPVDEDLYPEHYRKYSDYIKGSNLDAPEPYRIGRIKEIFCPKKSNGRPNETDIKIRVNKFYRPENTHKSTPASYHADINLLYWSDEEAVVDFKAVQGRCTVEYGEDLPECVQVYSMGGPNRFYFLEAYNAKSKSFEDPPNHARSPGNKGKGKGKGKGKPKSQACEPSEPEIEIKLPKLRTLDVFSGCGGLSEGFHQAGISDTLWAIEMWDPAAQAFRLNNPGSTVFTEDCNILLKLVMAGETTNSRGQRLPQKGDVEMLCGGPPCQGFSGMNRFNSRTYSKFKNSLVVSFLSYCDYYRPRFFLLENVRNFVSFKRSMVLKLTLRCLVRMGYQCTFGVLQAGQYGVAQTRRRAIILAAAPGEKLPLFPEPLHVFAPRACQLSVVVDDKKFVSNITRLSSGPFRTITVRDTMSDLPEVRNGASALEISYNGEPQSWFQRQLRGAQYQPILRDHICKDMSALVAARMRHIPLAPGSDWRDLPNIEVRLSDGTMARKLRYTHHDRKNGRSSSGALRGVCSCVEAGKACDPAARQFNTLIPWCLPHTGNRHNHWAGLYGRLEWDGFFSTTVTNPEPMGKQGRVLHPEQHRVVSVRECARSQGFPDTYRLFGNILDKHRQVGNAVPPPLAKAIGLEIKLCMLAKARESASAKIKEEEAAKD

Cc1cccc2ccc[n+](C)c12 [1,8-diMQ]
Inhibition of DNMT1 [1]: did not inhibit | IC50 [1]: > 200 µM | Inhibition of PRMT3 [2]: did not inhibit | Inhibition of COMT ([3]; maximal tested concentration 200 µM): 20% | IC50 [4]: 1.8 µM | Mean B➔A Papp ([5]; Caco-2, 10 µM, 2 h, pH 7.4): 1.78 10^−6 cm/s | Mean A➔B Papp ([5]; Caco-2, 10 µM, 2 h, pH 7.4, BLQ: no peak detected in receiver side sample): BLQ | Classification (Caco-2 permeability/efflux) ([5]; Caco-2 assay): Low permeability | Flux [6]: 8.637e-07 cm/s | Permeability Classification [6]: Low permeability

c1ccc2ncccc2c1 [Quinoline, reference compound]
Permeability Classification [7]: High permeability

C[n+]1cccc2c(N)c(F)ccc21 [5-amino-6-fluoro-1MQ]
Inhibition of NAMPT ([8]; concentrations between 30 and 600 µM (data not shown)): no inhibition

C[n+]1cc(N)cc2cc(F)ccc21 [3-amino-6-fluoro-1MQ]
Permeability Classification [7]: Moderate permeability | Flux [7]: 1.078e-06 cm/s | IC50 [4]: 1.2 µM | 1-MNA levels in adipocytes relative to control ([9]; differentiated adipocytes): significantly decreased

C[n+]1cccc2c(N)cccc21 [5-amino-1MQ, 5-amino-1-methylquinolinium]
3T3-L1 cell viability vs untreated [10]: only slightly reduced | Inhibition of DNMT1 [1]: did not inhibit | IC50 [1]: > 200 µM | Inhibition of PRMT3 [2]: did not inhibit | Inhibition of COMT ([3]; maximal tested concentration 600 µM): 10% | IC50 ([8]; read-out: IC50, Nicotinamide phosphoribosyl transferase, concentrations above 100 µM could not be tested due to interference in the assay readout signal): > 100 µM | Inhibition of NAMPT ([8]; up to a tested concentration of 100 µM): did not inhibit | Inhibition of SIRT1 ([11]; 10 nM – 300 µM): did not inhibit | SIRT1 activity ([11]; 600 µM): minor reduction | Tolerability in dose escalation study ([12]; DIO mice (n=2), total dose of 60 mg/kg/day): well tolerated with no observable adverse effects | Decrease in adipocyte size (EWAT histology) vs control DIO mice [12, 16]: > 30% | Total cumulative food intake [12, 16]: 26.2 ± 1.4 g | Decrease in adipocyte volume vs control DIO mice ([12]; DIO mice, 20 mg/kg SC three times daily, 11 days (data not shown)): > 40% | Plasma total cholesterol lower relative to control DIO mice ([12]; DIO mice, 20 mg/kg SC three times daily, 11 days, 4 h fast): ~ 30% | Reduction of lipogenesis vs control untreated adipocytes ([13]; 30 µM): 50% | Reduction of lipogenesis vs control untreated adipocytes ([13]; 60 µM): 70% | Permeability Classification [7]: High permeability | Flux [7]: 3.015e-06 cm/s | Classification (Caco-2 permeability/efflux) [14]: High permeability (no efflux) | Mean A➔B Papp [14]: 34.2 10^−6 cm/s | Mean B➔A Papp [14]: 45.2 10^−6 cm/s | IC50 [4]: 1.2 µM | Efflux Ratio (Re) ([5]; Re=Papp (B→A)/Papp (A→B)): 1.33 | Relative intracellular 1-MNA level (of level in untreated adipocytes) ([9]; adipocytes, 10–60 µM, plateau): ~ 40% | 1-MNA levels in adipocytes relative to control ([9]; differentiated adipocytes): significantly decreased | Intracellular levels of 1-MNA vs untreated controls ([9]; differentiated adipocytes): significant reduction | Intracellular levels of 1-MNA vs untreated controls ([9]; pre-adipocytes): significant reduction | EC50 ([9]; read-out: EC50 (inhibition of NNMT, intracellular 1-MNA), fully differentiated adipocytes, 0.3–60 µM): 2.3 µM | Intracellular NAD+ levels vs control ([15]; 10 µM): significant increase | Intracellular SAM levels vs control ([15]; 30 µM): significant increase | Intracellular levels of NA ([15]; 0.3–60 µM): no statistically significant main effect | Intracellular levels of SAH ([15]; 0.3–60 µM): no statistically significant main effect | Increase in NAD+ levels relative to control adipocytes ([15]; 1–60 µM): 1.2–1.6 fold

C[n+]1cccc2ccc(N)cc21 [7-amino-1MQ]
Permeability Classification [7]: High permeability | Flux [7]: 2.055e-06 cm/s | Classification (Caco-2 permeability/efflux) [14]: High permeability (no efflux) | Efflux Ratio (Re) [14]: 1.52 | Mean A➔B Papp [14]: 26.0 10^−6 cm/s | Mean B➔A Papp [14]: 39.6 10^−6 cm/s | IC50 [4]: 2.6 µM

Cc1cc(C)[n+](C)c2c(C)cccc12 [1,2,4,8-tetraMQ]
Permeability Classification [7]: Low permeability | Flux [7]: 6.982e-07 cm/s | IC50 [4]: 109 µM | 1-MNA levels in adipocytes relative to control ([9]; differentiated adipocytes): did not significantly decrease

C[n+]1c(N)c(N)cc2ccccc21 [2,3-diamine-1MQ]
Permeability Classification [7]: High permeability | Flux [7]: 3.898e-06 cm/s | Classification (Caco-2 permeability/efflux) [14]: Moderate permeability (moderate efflux) | Efflux Ratio (Re) [14]: 4.03 | Mean A➔B Papp [14]: 5.27 10^−6 cm/s | Mean B➔A Papp [14]: 21.2 10^−6 cm/s | IC50 [4]: 2.8 µM

Nc1ncnc2c1ncn2[C@@H]1O[C@H](CSCC[C@H](N)C(=O)O)[C@@H](O)[C@H]1O [SAH, reference compound]
IC50 ([2]; read-out: IC50, Protein arginine methyltransferase 3, NI: no inhibition, NC: not calculable): 6.6 ± 1.2 µM

C[n+]1cccc2ccccc21 [1-MQ, 1-methylquinolinium]
Permeability Classification [7]: No permeability | IC50 [4]: 12.1 µM

C[n+]1cccc(C(N)=O)c1 [1-MNA, 1-methylnicotinamide, reference compound]
Flux [6]: 0 cm/s | Permeability Classification [6]: No permeability
